{"source": "patent EP0123446A1", "about": "“2-Furylbutyrolactone derivatives, their preparation, compositions containing them, and their use for the modulation of the immune system in mammals” (NATIONAL FOUNDATION FOR CANCER RESEARCH, INC., priority 1983, dated 1984)", "key": {"[1]": {"system": "L-1210 leukaemia cells", "test": "L-1210 leukaemia anti-cancer study (NCI protocol), BDF1 mice", "format": "in vivo", "conditions": "20 mg/kg, seven days, Table 25", "excerpt": "Mice of the BDF1 strain were given an i.p. inoculation of 10^6 L-1210 leukaemia cells on day 0. Twenty-four hours later, groups of 7 mice each were started on a […] treatment regimen of various doses of the compounds of this invention. The experiment was continued according to the guidelines provided under the National Cancer Institute protocol for screening new anti-cancer agents; T/C ratios (median or mean survival time of treated groups over median or mean survival time of controls) were calculated. A T/C value > 1.25 (or 125%) is considered to indicate significant anticancer activity.\nMice of the BDF1 strain, inoculated with L-1210 leukaemia cells, were treated for seven days with either 25, 50, 100, 200 or 400 mg/kg of Cpd. 1 or just buffer. The National Cancer Institute protocol for screening new anti-cancer agents was followed and T/C ratios were calculated.\nMice of the BDFI strain, inoculated with L-1210 leukaemia cells, were treated for seven days with either 100 mg/kg of Cpd. 1, 20 mg/kg of 5-fluorouracil (5-FU), a known anti-cancer agent, or just buffer. The National Cancer Institute protocol for screening new anti-cancer agents was followed and T/C ratios are calculated."}, "[2]": {"system": "spleen lymphocytes", "test": "Lymphocyte stimulation assay after in vivo treatment, C57BL/6 mice", "conditions": "for Lymphocyte Stimulation Index Con-A / Lymphocyte Stimulation Index Control / Lymphocyte Stimulation Index PHA: C57BL/6, Table 3-A", "protocol": "(§1) The purpose of this assay is to challange lymphocytes in microcultures with one or more polyclonal mitogens at concentrations that will induce mitogenesis within 72 hours of stimulation.\n(§2) In the mouse model, spleens were removed from different strains of mice and the spleen cells were teased free and suspended in RPMI-1640 tissue culture medium at a concentration of usually 1 x 10^7 ml. These cells were dispensed at a concentration of […] cells per microculture well in a 96 well flat bottom tissue culture plate. All testing of the compounds of this invention or mitogens were done in replicates of 10. The cells were then treated with PHA. Con-A, specific antigens, or buffer only. Where in vitro testing was done, varying concentrations of the compounds of this invention or buffer only were added to the cells as well. After treatment with the mitogens and/or compounds of this invention, the cells were incubated for 72 hours. The response of these cells to mitogens and/or the compounds of this invention was assessed using 14 C-thymidine labeling on the fourth day at a concentration of 0.01 microCi/well. The labeled cells were harvested using a lymphocyte harvestor and placed onto fibrous paper discs. A scintillation cocktail was added to vials containing the discs and the results were obtained using a LKB-liquid scintillation counter (Model 1216/Rackbeta II). The data is expressed as a ratio of the cpm (counts per minute) of the mitogen stimulated group to the control (non-mitogen) treated group = lymphocyte stimulation index (LSI).\n(§3) The lymphocyte stimulation assay may be performed directly on spleen cells obtained from various strains of mice not treated with the compounds of this invention or on lymphocytes obtained from human plasma. In such experiments, the compounds of this invention were added directly to the spleen lymphcytes in vitro and the assay was completed and results interpreted. Alternatively. the mice may be treated in vivo with the compounds of this invention by intraperitoneal multi-dose schedules, followed by sacrifice and harvesting spleen lymphocytes. These cells were then tested for their response to polyclonal mitogens or specific antigens used to immunize the mice. In this system however, no additional compound was added to the in vitro lymphocyte stimulation assay system."}, "[3]": {"system": "human lymphocytes", "test": "In vitro lymphocyte stimulation assay, human lymphocytes", "format": "cell-based", "parameters": "key to Lymphocyte Stimulation Index PHA / Lymphocyte Stimulation Index Con-A: ratio of cpm of mitogen-stimulated to non-mitogen control group (LSI)", "conditions": "for Lymphocyte Stimulation Index Con-A / Lymphocyte Stimulation Index PHA: human, Table 6-A", "protocol": "as §1, §2, §3\nLymphocytes isolated from 5 human volunteers were treated in vitro with PHA and Con-A and either 10^2, 10^3, 10^4, 5 x 10^4 or 10^5 ng/well of Cpd. 1, 10^2, 10^3, 10^4, 5 x 10^4, or 10^5 ng/well of AA, or buffer."}, "[4]": {"system": "spleen lymphocytes", "test": "In vitro lymphocyte stimulation assay, C57BL/6 spleen lymphocytes", "format": "cell-based, mice", "conditions": "for effect on response of the lymphocytes to PHA and Con-A: C57BL/6 spleen cells in vitro, Example 19", "protocol": "as §1, §2, §3"}, "[5]": {"conditions": "1.04x10^3 ng/well in vitro, C57BL/6, Table 12-A"}, "[6]": {"conditions": "1.66x10^4 ng/well in vitro, C57BL/6, Table 12-A"}, "[7]": {"conditions": "2.08x10^3 ng/well in vitro, C57BL/6, Table 12-A"}, "[8]": {"conditions": "4.15x10^3 ng/well in vitro, C57BL/6, Table 12-A"}, "[9]": {"conditions": "8.3x10^3 ng/well in vitro, C57BL/6, Table 12-A"}, "[10]": {"conditions": "1.392x10^4 ng/well, C57BL/6, Table 12-B"}, "[11]": {"conditions": "1.74x10^3 ng/well, C57BL/6, Table 12-B"}, "[12]": {"conditions": "3.48x10^3 ng/well, C57BL/6, Table 12-B"}, "[13]": {"conditions": "6.96x10^3 ng/well, C57BL/6, Table 12-B"}, "[14]": {"conditions": "8.7x10^2 ng/well, C57BL/6, Table 12-B"}}, "data": [{"smiles": "O=c1[nH]cc(F)c(=O)[nH]1", "note": "[5-FU, 5-fluorouracil]", "values": [{"measurement": "Median Survival Time", "setting": "[1]", "value": 30}, {"measurement": "T/C", "setting": "[1]", "value": 1.50}]}, {"smiles": "O=C1O[C@H]([C@@H](O)CO)C(O)=C1O", "note": "[AA, ascorbic acid]", "values": [{"measurement": "effect on lymphocyte response, Con-A stimulated group", "setting": "[2]; 50 mg/kg i.p. 4 days, C57BL/6", "value": "single stimulation of proliferation"}, {"measurement": "Lymphocyte Stimulation Index Con-A", "setting": "[2]; 50 mg/kg i.p. 4 days", "value": 25.5}, {"measurement": "Lymphocyte Stimulation Index Control", "setting": "[2]; 50 mg/kg i.p. 4 days", "value": 0.56}, {"measurement": "Lymphocyte Stimulation Index PHA", "setting": "[2]; 50 mg/kg i.p. 4 days", "value": 17.1}, {"measurement": "Lymphocyte Stimulation Index Con-A", "setting": "[2]; 100 mg/kg i.p. 4 days", "value": 19.8}, {"measurement": "Lymphocyte Stimulation Index Control", "setting": "[2]; 100 mg/kg i.p. 4 days", "value": 1.8}, {"measurement": "Lymphocyte Stimulation Index PHA", "setting": "[2]; 100 mg/kg i.p. 4 days", "value": 17.1}, {"measurement": "Lymphocyte Stimulation Index Con-A", "setting": "[2]; 200 mg/kg i.p. 4 days", "value": 21.1}, {"measurement": "Lymphocyte Stimulation Index Control", "setting": "[2]; 200 mg/kg i.p. 4 days", "value": 1.3}, {"measurement": "Lymphocyte Stimulation Index PHA", "setting": "[2]; 200 mg/kg i.p. 4 days", "value": 10.0}, {"measurement": "Lymphocyte Stimulation Index Con-A", "setting": "[2]; 400 mg/kg i.p. 4 days", "value": 17.8}, {"measurement": "Lymphocyte Stimulation Index Control", "setting": "[2]; 400 mg/kg i.p. 4 days", "value": 1.3}, {"measurement": "Lymphocyte Stimulation Index PHA", "setting": "[2]; 400 mg/kg i.p. 4 days", "value": 14.3}, {"measurement": "Lymphocyte Stimulation Index Con-A", "setting": "[2]; 800 mg/kg i.p. 4 days", "value": 23.9}, {"measurement": "Lymphocyte Stimulation Index Control", "setting": "[2]; 800 mg/kg i.p. 4 days", "value": 0.50}, {"measurement": "Lymphocyte Stimulation Index PHA", "setting": "[2]; 800 mg/kg i.p. 4 days", "value": 12.1}, {"measurement": "effect on lymphocyte response with PHA", "setting": "[2]; 50-800 mg/kg i.p. 4 days, C57BL/6", "value": "No statistically significant measureable effect"}, {"measurement": "Lymphocyte Stimulation Index Con-A", "setting": "[3]; 5x10^4 ng/well in vitro", "value": 23.31}, {"measurement": "Lymphocyte Stimulation Index PHA", "setting": "[3]; 5x10^4 ng/well in vitro", "value": 35.93}, {"measurement": "Lymphocyte Stimulation Index Con-A", "setting": "[3]; 10^2 ng/well in vitro", "value": 24.37}, {"measurement": "Lymphocyte Stimulation Index PHA", "setting": "[3]; 10^2 ng/well in vitro", "value": 38.29}, {"measurement": "Lymphocyte Stimulation Index Con-A", "setting": "[3]; 10^3 ng/well in vitro", "value": 24.76}, {"measurement": "Lymphocyte Stimulation Index PHA", "setting": "[3]; 10^3 ng/well in vitro", "value": 34.69}, {"measurement": "Lymphocyte Stimulation Index Con-A", "setting": "[3]; 10^4 ng/well in vitro", "value": 27.35}, {"measurement": "Lymphocyte Stimulation Index PHA", "setting": "[3]; 10^4 ng/well in vitro", "value": 35.10}, {"measurement": "Lymphocyte Stimulation Index Con-A", "setting": "[3]; 10^5 ng/well in vitro", "value": 25.18}, {"measurement": "Lymphocyte Stimulation Index PHA", "setting": "[3]; 10^5 ng/well in vitro", "value": 34.23}, {"measurement": "proliferative or anti-proliferative effect, PHA and Con-A", "setting": "[3]; 10^2 to 10^5 ng/well, human lymphocytes in vitro", "value": "no significant proliferative or anti-proliferative effect"}]}, {"smiles": "O=C(O)CCC(=O)O", "note": "[Succinic Acid, succinic acid]", "values": [{"measurement": "Lymphocyte Stimulation Index Con-A", "setting": "[4]; [5]", "value": 64.6}, {"measurement": "Lymphocyte Stimulation Index Control", "setting": "[4]; [5]", "value": 0.94}, {"measurement": "Lymphocyte Stimulation Index PHA", "setting": "[4]; [5]", "value": 15.7}, {"measurement": "Lymphocyte Stimulation Index Con-A", "setting": "[4]; [6]", "value": 38.5}, {"measurement": "Lymphocyte Stimulation Index Control", "setting": "[4]; [6]", "value": 1.1}, {"measurement": "Lymphocyte Stimulation Index PHA", "setting": "[4]; [6]", "value": 11.5}, {"measurement": "Lymphocyte Stimulation Index Con-A", "setting": "[4]; [7]", "value": 51.1}, {"measurement": "Lymphocyte Stimulation Index Control", "setting": "[4]; [7]", "value": 1.0}, {"measurement": "Lymphocyte Stimulation Index PHA", "setting": "[4]; [7]", "value": 15.3}, {"measurement": "Lymphocyte Stimulation Index Con-A", "setting": "[4]; [8]", "value": 42.3}, {"measurement": "Lymphocyte Stimulation Index Control", "setting": "[4]; [8]", "value": 0.91}, {"measurement": "Lymphocyte Stimulation Index PHA", "setting": "[4]; [8]", "value": 14.0}, {"measurement": "Lymphocyte Stimulation Index Con-A", "setting": "[4]; [9]", "value": 35.6}, {"measurement": "Lymphocyte Stimulation Index Control", "setting": "[4]; [9]", "value": 0.91}, {"measurement": "Lymphocyte Stimulation Index PHA", "setting": "[4]; [9]", "value": 12.4}, {"measurement": "effect on response of the lymphocytes to PHA and Con-A", "setting": "[4]", "value": "decrease in PHA and Con-A mitogenesis with increased succinic acid dosage"}]}, {"smiles": "O=C1CCC(=O)N1", "note": "[Succinimide, succinimide]", "values": [{"measurement": "Lymphocyte Stimulation Index Con-A", "setting": "[4]; [10]", "value": 92.9}, {"measurement": "Lymphocyte Stimulation Index Control", "setting": "[4]; [10]", "value": 1.4}, {"measurement": "Lymphocyte Stimulation Index PHA", "setting": "[4]; [10]", "value": 17.1}, {"measurement": "Lymphocyte Stimulation Index Con-A", "setting": "[4]; [11]", "value": 83.4}, {"measurement": "Lymphocyte Stimulation Index Control", "setting": "[4]; [11]", "value": 1.1}, {"measurement": "Lymphocyte Stimulation Index PHA", "setting": "[4]; [11]", "value": 17.5}, {"measurement": "Lymphocyte Stimulation Index Con-A", "setting": "[4]; [12]", "value": 85.1}, {"measurement": "Lymphocyte Stimulation Index Control", "setting": "[4]; [12]", "value": 0.98}, {"measurement": "Lymphocyte Stimulation Index PHA", "setting": "[4]; [12]", "value": 18.1}, {"measurement": "Lymphocyte Stimulation Index Con-A", "setting": "[4]; [13]", "value": 71.9}, {"measurement": "Lymphocyte Stimulation Index Control", "setting": "[4]; [13]", "value": 1.1}, {"measurement": "Lymphocyte Stimulation Index PHA", "setting": "[4]; [13]", "value": 17.2}, {"measurement": "Lymphocyte Stimulation Index Con-A", "setting": "[4]; [14]", "value": 76.0}, {"measurement": "Lymphocyte Stimulation Index Control", "setting": "[4]; [14]", "value": 0.91}, {"measurement": "Lymphocyte Stimulation Index PHA", "setting": "[4]; [14]", "value": 19.5}, {"measurement": "effect on response of the lymphocytes to PHA and Con-A", "setting": "[4]", "value": "no significant suppressive or enhancing effect"}]}]}
